SMILES strings stand for the structures. Several values for one entry are separate records, joined by “and”; a condition that tells them apart may be missing. Equal values may be shown once.

Broadly, the IC50 is the point on the concentration scale where inhibition reaches its midpoint.

For the assay, the system named is S. Typhi PhoP-promoter GFP reporter, fluorescence, 4 h. Put plainly: PhoP regulon inhibitor project modified counter assay, GFP fluorescence readout, dose response (AID 1985).
On to `Cc1[nH]c2ccc(OC(F)(F)F)cc2c1CCNCc1ccc(Cl)cc1`, for which the IC50 was 36.3 µM. With `Cc1cc(C2N=C(N)Nc3nc4ccccc4n32)c(C)n1-c1ccccc1Cl` (configuration not stated), the IC50 is 88.3 µM. Then `COc1ccc(OCC(O)CNc2ccc(Br)cc2)cc1` (configuration not stated), with 3.55 µM. In the case of `O=C(C[n+]1cc(Br)cc2ccccc21)c1ccc(Cl)cc1` it was 57.8 µM; in that of `O=C(CCNC(=O)c1ccco1)Nc1ccc(SC(F)F)cc1`, 74.7 µM; in that of `O=c1c2ccccc2nc(N/N=C/c2c(O)ccc3ccccc23)n1O`, 23 µM. In the case of `Cc1cc(N/N=C/c2ccc(O)cc2)c2cccc(C)c2n1` it was 80.9 µM; in that of `O=C(Nc1ccc(Cc2ccncc2)cc1)c1ccc([N+](=O)[O-])o1`, 39.5 µM. Turning to `O=C(N/N=C\C=C\c1ccc([N+](=O)[O-])o1)c1cccs1`, the IC50 was 27.8 µM.

As for `Cc1ccc2nc(N(CCCN(C)C)C(=O)c3sc4ccccc4c3Cl)sc2c1`, the IC50 is 54.7 µM. Then `Cc1ccc(Nc2nc(N)c3ccccc3n2)cc1Cl`, with 68.5 µM; and `Cc1cc([N+](=O)[O-])cc(/C=N/n2c(C)nc3ccccc3c2=O)c1O`, with 53.6 µM; and `O=C(c1cnn(C(=O)COc2ccccc2F)c1)c1cc(F)ccc1O`, with 83.3 µM. Consider `Cc1ccc(NC(=O)c2ccc([N+](=O)[O-])o2)c(C)c1`, for which the half-maximal inhibitory concentration (IC50) was 38.9 µM. `CN(C)c1ccc(/C=C/c2ccc3ccccc3[n+]2C)cc1`: the half-inhibitory concentration (IC50) was 19.5 µM. Then `Cc1ccc(C(=O)N/C(=C\c2ccc(-c3ccc(Cl)cc3)o2)C(=O)NCCCN(C)C)cc1`, with 85.8 µM. Then `CCCc1nnc(NC(=O)c2cn(CC)c3cc(N4CCN(C)CC4)c(F)cc3c2=O)s1`, with 41.2 µM. Then `CCn1cc(C(=O)NCCO)c(=O)c2cc(F)c(N3CCN(C)CC3)cc21`, with 16.3 µM. As for `Cc1ccc(Nc2nc(NCCO)c3ccccc3n2)cc1C`, the IC50 is 80.8 µM. Turning to `C#CCOCCOCCOCCNc1nc(N2CCN(C(=O)CCCCCCCCCCNC(=O)[C@H]([C@@H](C)CC)n3cc(CCCCN=C(N)N)nn3)CC2)nc(N2CCN(C(=O)CCCCCCCCCCNC(=O)[C@H](CO)n3cc(CCCCCN)nn3)CC2)n1`, the IC50 is 32.8 µM.

For the compound `COC(=O)C1=C(C)N(Cc2ccccc2)C(=NCc2cccc(C(F)(F)F)c2)N[C@H]1c1cccc(F)c1`, the concentration for half-maximal inhibition (IC50) was 86.1 µM. For `O=C(CN1CC[n+]2c(-c3cccs3)csc21)c1ccc(-c2ccccc2)cc1`, the half-inhibitory concentration (IC50) was 33.7 µM. In the case of `CC(C)(C)CC(C)(C)c1ccc(OCCOCC[N+](C)(C)Cc2ccccc2)cc1` it was 34.9 µM; in that of `O=C(N/N=C/c1ccccn1)c1cccs1`, 42.8 µM. In the case of `O=c1c(O)cccc2cc(O)c(O)c(O)c12` it was 17.5 µM; in that of `CCSc1ccc2c(c1)N(CCCN1CCN(C)CC1)c1ccccc1S2`, 131 µM; in that of `CCc1ccc(NC(=O)Nc2ccncc2)cc1`, 51.8 µM.

For the compound `Clc1ccc(OCCCN2CCCC2)cc1Cl`, the 50% inhibitory concentration (IC50) is 48.4 µM. `Cc1[nH]n(-c2ccccc2)c(=O)c1C(c1cccc([N+](=O)[O-])c1O)c1c(C)[nH]n(-c2ccccc2)c1=O`: the IC50 is 48.5 µM. Then `O=C(/C=C/c1ccccc1Cl)Nc1cccc(O)c1`, with 61.7 µM. For the compound `CCOC(=O)c1ccc(CNCc2ccc(Br)cc2)cc1`, the IC50 is 53.8 µM. Then `Clc1ccc2[nH]c3c(c2c1)CCc1cn[nH]c1-3`, with 74.8 µM; and `O=C(CN1CC(c2ccccc2)CC1=O)N/N=C/c1cc(Br)ccc1O` (configuration not stated), with 46.4 µM; and `NC(=NCCCCCCN=C(N)/N=C(\N)Nc1ccc(Cl)cc1)/N=C(\N)Nc1ccc(Cl)cc1`, with 3.89 µM and 3.25 µM and 5.35 µM.

Consider `NC1=NC[C@H](Cc2ccc(O)cc2)N1CCC12CC3CC(CC(C3)C1)C2`, for which the IC50 is 95 µM. For the compound `C1=C(CCNCc2ccccc2)CCCC1`, the IC50 is 8.38 µM. As to `CCCCCCCSc1cc(OC)c(CCN(C)C)cc1OC`, the 50% inhibitory concentration (IC50) is 83.5 µM. In the case of `COc1nsnc1NS(=O)(=O)c1ccc(NC(=S)NC(=O)c2cccnc2)cc1` it was 23.6 µM.

Consider `O=C(N/N=C/c1cc(O)ccc1Br)c1cccnc1`, for which the IC50 is 33.2 µM. With `c1ccc(-c2nc3ccccc3[nH]2)cc1`, the concentration for half-maximal inhibition (IC50) is 75 µM.

Consider `CN1CCN(c2nc3cc(C(F)(F)F)ccc3n3cccc23)CC1`, for which the IC50 was 101 µM. In the case of `NC(N)=N/N=C/c1ccc(OCc2ccccc2Cl)cc1` it was 33.4 µM; in that of `OCCN1CCN(C2CCC(c3ccc(F)cc3)c3ccc(F)cc32)CC1` (configuration not stated), 67.7 µM; in that of `COc1ccc(CNCCC(c2ccccc2)c2ccc3c(c2)OCO3)cc1` (configuration not stated), 149 µM. Then `CCCCCC(=O)NC(=S)NNC(=O)CC`, with 84.2 µM; and `CC(C)[C@@H]1CC[C@@H](C)C[C@H]1OC(=O)C[n+]1cc(-c2ccc(Cl)cc2)n2c1CCCCC2`, with 142 µM. Then `Cc1cc(/C=C\c2ccc3cc(N(C)C)ccc3[n+]2C)c(C)n1-c1ccccc1`, with 32 µM; and `CC1COc2c(N3CCN(C)CC3)c(F)cc3c(=O)c(C(=O)O)cn1c23` (configuration not stated), with less than 0.23 µM; and `COc1ccc(Nc2ccnc3ccccc23)cc1`, with 85.8 µM. `O=Cc1c(Cl)nc2ccccn2c1=O`: the IC50 is 132 µM. As to `O=C(Nc1cccc(Cl)c1)Nc1nccs1`, the concentration for half-maximal inhibition (IC50) is 55.3 µM.

Take `O=C(Nc1cccnc1)c1cc(Br)c(Br)s1`: the IC50 was 134 µM. In the case of `C#CCOCCOCCOCCNc1nc(N2CCN(C(=O)CCCCCCCCCCNC(=O)[C@H](CO)n3cc(CCCCCN)nn3)CC2)nc(N2CCN(C(=O)CCCCCCCCCCNC(=O)[C@H](CCCN=C(N)N)n3cc(C[C@@H](C)CC)nn3)CC2)n1` it was 142 µM; in that of `O=C(C[n+]1cnn(CC(=O)c2ccc(Cl)cc2Cl)c1)c1ccc([N+](=O)[O-])cc1`, 42.8 µM; in that of `Cc1ccc(N/C(=C\C(=O)c2ccccc2)C(=O)O)cc1`, 17.3 µM. Then `Nn1cnnc1N/N=C\c1ccc(-c2ccccc2[N+](=O)[O-])o1`, with 29 µM; and `CC(NCc1ccccc1O)C12CC3CC(CC(C3)C1)C2` (configuration not stated), with 81.4 µM. `[O-][n+]1cccc2c(Br)cc(Br)c(O)c21`: the concentration for half-maximal inhibition (IC50) is 21.9 µM. Then `C=CCn1c(NS(=O)(=O)c2ccccc2)c(S(=O)(=O)c2ccc(C)cc2)c2nc3ccccc3nc21`, with 135 µM.

As for `COc1ccc(CCN2CCC(Nc3nc4ccccc4n3Cc3ccc(F)cc3)CC2)cc1`, the IC50 is 105 µM. On to `Cc1ccc2c(c1)C1CN(C)CCC1N2Sc1ccccc1[N+](=O)[O-]` (configuration not stated), for which the half-inhibitory concentration (IC50) is 135 µM. For the compound `O=C(OCC(=O)N1CCOCC1)c1ccc[nH]c1=O`, the IC50 is 10.6 µM. `O=C1c2ccccc2NC(c2ccc(-c3ccc(Br)cc3)o2)N1O` (configuration not stated): the 50% inhibitory concentration (IC50) was 81.1 µM.

For `Cc1ccc(NC(=O)c2ccccc2)s1`, the IC50 is 91.9 µM. Consider `CCCCCc1ccc(OCCCC[n+]2cccc(C)c2)c(CCCCC)c1`, for which the IC50 was 103 µM.

On to `Cc1ccc(-n2c(-c3ccc(Br)cc3)c[n+]3c2CCc2ccc4cccnc4c2-3)cc1`, for which the IC50 is 97.5 µM.

On to `O=S1(=O)Nc2c(ccc3cccnc23)-c2ccccc21`, for which the 50% inhibitory concentration (IC50) was 1.17 µM.

With `O=C(/C=C/c1ccccc1)NC(=S)NNC(=O)c1cnccn1`, the IC50 was 146 µM. On to `COc1cccc(/C=N/NC(=O)CSCC(=O)Nc2ccccc2)c1O`, for which the IC50 was 92.5 µM. In the case of `CC(C)(C)/C(O)=C/c1nc2cc(Cl)ccc2oc1=O` it was 11.2 µM; in that of `O=C(NC(=S)NNC(=O)c1cccs1)c1ccc(Br)o1`, 25.4 µM. In the case of `CN(C)CCCN(C(=O)COc1ccccc1)c1nc2ccc(Cl)cc2s1` it was 141 µM.

As for `OCCNCc1cc(Br)ccc1OCc1ccc(Cl)cc1`, the IC50 was 121 µM. On to `O=C(CCN1CCN(c2ccccc2F)CC1)c1ccc(Br)cc1`, for which the IC50 was 43.4 µM.

As for `CCCCC(CC)CN=C(N)NC(N)=NCCCCCCN=C(N)NC(N)=NCC(CC)CCCC` (configuration not stated), the concentration for half-maximal inhibition (IC50) is 2.61 µM. In the case of `CC[N+](C)(CC)CCC[n+]1c(-c2ccccc2)c2cc(N)ccc2c2ccc(N)cc21` it was 53.4 µM; in that of `Nc1ncn([C@@H]2O[C@H](CO)[C@@H](O)[C@H]2O)c(=O)n1`, 11.2 µM; in that of `c1ccc2c(c1)CSc1sccc1C2=C1CCNCC1`, 106 µM. As for `CCN1CCN(C2=C(NS(=O)(=O)c3ccc(Br)cc3)C(=O)c3ccccc3C2=O)CC1`, the half-maximal inhibitory concentration (IC50) was 47.4 µM. For `C/C(=N\NC(=O)c1ccccc1O)c1cccs1`, the half-inhibitory concentration (IC50) is 89.3 µM. On to `O=C(Cn1nc(CNc2ccc(Br)cc2)[n+]2c1CCCCC2)c1ccc([N+](=O)[O-])cc1`, for which the 50% inhibitory concentration (IC50) was 78.8 µM. In the case of `CCn1cc(C(=O)O)c(=O)c2cc(F)c(N3CCN(C(=S)NC(=O)c4ccc(Br)cc4)CC3)cc21` it was 31.2 µM; in that of `CCn1cc(C(=O)NCCN(C)C)c(=O)c2cc(F)c(N3CCN(C)CC3)cc21`, 34 µM. Then `CN(C)CC/C=C1/c2ccccc2Sc2ccc(Cl)cc21`, with 86.2 µM. Then `CCN(CC)c1ccc(/C=N/NC(=O)c2ccc3nc[nH]c3c2)c(O)c1`, with 46.6 µM; and `Cc1ccc(Nc2cc(C)c3c(O)cccc3n2)cc1C`, with 30.7 µM. In the case of `C#CCOCCOCCOCCNc1nc(N2CCN(C(=O)[C@H](Cc3cc4ccccc4[nH]3)n3cc([C@@H](N)C(C)CC)nn3)CC2)nc(N2CCN(C(=O)[C@H](Cc3cc4ccccc4[nH]3)n3cc([C@@H](N)CC(C)C)nn3)CC2)n1` (some centres not stated), the IC50 was 54.5 µM.

Consider `N=c1n(CC(=O)c2ccc(Br)s2)c2ccccc2n1Cc1ccccc1`, for which the concentration for half-maximal inhibition (IC50) was 47.2 µM.

On to `COc1ccccc1C(C[N+](=O)[O-])c1c(N)n(C)c(=O)n(C)c1=O` (configuration not stated), for which the IC50 is 79.1 µM.

Consider `O=C(Nc1cccc(Br)c1)c1cc2ccccc2o1`, for which the 50% inhibitory concentration (IC50) is 47.4 µM. Then `CN1CCN(C(c2ccc(C(F)(F)F)cc2)c2ccc3cccnc3c2O)CC1` (configuration not stated), with 34.9 µM. Then `COc1c(N2CCN(C(=S)Nc3ccccc3F)C(C)C2)c(F)cc2c(=O)c(C(=O)O)cn(C3CC3)c12` (configuration not stated), with 0.441 µM; and `Cc1ccc(OCC(=O)N/N=C\c2c(C)[nH]n(-c3ccccc3)c2=O)c([N+](=O)[O-])c1`, with 53.6 µM.

As to `O=C1C(O)=C(O)C(=O)c2ccccc21`, the IC50 is 88.8 µM. Then `C/C(O)=C\c1nc2ccccc2oc1=O`, with 14.9 µM; and `CC(=O)Nc1cccc(NC(=O)Nc2ccc(F)cc2F)c1`, with 114 µM.

As to `Oc1cc(Cl)ccc1Oc1ccc(Cl)cc1Cl`, the concentration for half-maximal inhibition (IC50) was 0.369 µM.
